Here are results for 8 molecules from ChEMBL document CHEMBL4251595, “Green approach for the synthesis of thiophenyl pyrazoles and isoxazoles by adopting 1,3-dipolar cycloaddition methodology and their antimicrobial activity” (2018).

What all share (format): functional
The test system of experiment [1] is Staphylococcus aureus. The experiment in a line: Antimicrobial activity against Staphylococcus aureus assessed as zone of inhibition at 50 ug/well after 24 hrs by agar well diffusion method. The conditions noted are these: for zone of inhibition at 50 µg/disc: read-out: DIZ. A general note: Agar diffusion results depend on both activity and mobility in agar.
For experiment [2], the system named is Staphylococcus aureus. The experiment in a line: Antimicrobial activity against Staphylococcus aureus assessed as zone of inhibition at 75 ug/well after 24 hrs by agar well diffusion method. The conditions noted are these: for zone of inhibition at 75 µg/disc: read-out: DIZ.
In experiment [3] the test system is Staphylococcus aureus. Nature of the experiment: Antimicrobial activity against Staphylococcus aureus assessed as zone of inhibition at 100 ug/well after 24 hrs by agar well diffusion method. The note with it: for zone of inhibition at 100 µg/disc: read-out: DIZ.
In experiment [4] the test system is Bacillus subtilis. The experiment in a line: Antimicrobial activity against Bacillus subtilis assessed as zone of inhibition at 50 ug/well after 24 hrs by agar well diffusion method. The note with it: for zone of inhibition at 50 µg/disc: read-out: DIZ.
The test system of experiment [5] is Bacillus subtilis. Nature of the experiment: Antimicrobial activity against Bacillus subtilis assessed as zone of inhibition at 75 ug/well after 24 hrs by agar well diffusion method. The conditions noted are these: for zone of inhibition at 75 µg/disc: read-out: DIZ.
Experiment [6] has as its system Bacillus subtilis. Nature of the experiment: Antimicrobial activity against Bacillus subtilis assessed as zone of inhibition at 100 ug/well after 24 hrs by agar well diffusion method. The note with it: for zone of inhibition at 100 µg/disc: read-out: DIZ.
Experiment [7] deals with Pseudomonas aeruginosa. The experiment in a line: Antimicrobial activity against Pseudomonas aeruginosa assessed as zone of inhibition at 50 ug/well after 24 hrs by agar well diffusion method.
Experiment [8] relates to Pseudomonas aeruginosa. Nature of the experiment: Antimicrobial activity against Pseudomonas aeruginosa assessed as zone of inhibition at 75 ug/well after 24 hrs by agar well diffusion method. The note with it: for zone of inhibition at 75 µg/disc: read-out: DIZ.
For experiment [9], the system named is Pseudomonas aeruginosa. The experiment in a line: Antimicrobial activity against Pseudomonas aeruginosa assessed as zone of inhibition at 100 ug/well after 24 hrs by agar well diffusion method. The note with it: for zone of inhibition at 100 µg/disc: read-out: DIZ.
Experiment [10] concerns Klebsiella pneumoniae. The experiment in a line: Antimicrobial activity against Klebsiella pneumoniae assessed as zone of inhibition at 50 ug/well after 24 hrs by agar well diffusion method. The conditions noted are these: for zone of inhibition at 50 µg/disc: read-out: DIZ.
Experiment [11] relates to Klebsiella pneumoniae. Nature of the experiment: Antimicrobial activity against Klebsiella pneumoniae assessed as zone of inhibition at 75 ug/well after 24 hrs by agar well diffusion method. The conditions noted are these: for zone of inhibition at 75 µg/disc: read-out: DIZ.
For experiment [12], the system named is Klebsiella pneumoniae. The experiment in a line: Antimicrobial activity against Klebsiella pneumoniae assessed as zone of inhibition at 100 ug/well after 24 hrs by agar well diffusion method. The note with it: for zone of inhibition at 100 µg/disc: read-out: DIZ.
In experiment [13] the test system is Aspergillus niger. The experiment in a line: Antifungal activity against Aspergillus niger assessed as zone of inhibition at 50 ug/well after 48 hrs by agar well diffusion method. The note with it: for zone of inhibition at 50 µg/disc: read-out: DIZ.
The test system of experiment [14] is Aspergillus niger. Nature of the experiment: Antifungal activity against Aspergillus niger assessed as zone of inhibition at 75 ug/well after 48 hrs by agar well diffusion method. The note with it: for zone of inhibition at 75 µg/disc: read-out: DIZ.
The subject of experiment [15] is Aspergillus niger. The experiment in a line: Antifungal activity against Aspergillus niger assessed as zone of inhibition at 100 ug/well after 48 hrs by agar well diffusion method. The note with it: for zone of inhibition at 100 µg/disc: read-out: DIZ.
For experiment [16], the system named is Penicillium chrysogenum. The experiment in a line: Antifungal activity against Penicillium chrysogenum assessed as zone of inhibition at 50 ug/well after 48 hrs by agar well diffusion method.
For experiment [17], the system named is Penicillium chrysogenum. Nature of the experiment: Antifungal activity against Penicillium chrysogenum assessed as zone of inhibition at 75 ug/well after 48 hrs by agar well diffusion method. The conditions noted are these: for zone of inhibition at 75 µg/disc: read-out: DIZ.
Experiment [18] concerns Penicillium chrysogenum. Nature of the experiment: Antifungal activity against Penicillium chrysogenum assessed as zone of inhibition at 100 ug/well after 48 hrs by agar well diffusion method. The note with it: for zone of inhibition at 100 µg/disc: read-out: DIZ.

The source made the active and inactive calls. The calls are words filed in the database; no cut-off is given here.

Consider `Cc1ccc(-c2c(S(=O)(=O)NC(=O)c3cccs3)c(-c3ccccc3)nn2-c2ccccc2)cc1`, for which the zone of inhibition at 50 µg/disc in experiment [1] was 9 mm; in [4], 16 mm; in experiment [10], 14 mm; in [13] it was 12 mm. In addition, the zone of inhibition at 75 µg/disc in [2] came out at 12 mm; in experiment [5], 18 mm; in experiment [8], 8 mm; in [11], 16 mm; in experiment [14], 15 mm; in experiment [17] it was 8 mm. The zone of inhibition at 100 µg/disc in [3] is 14 mm; in experiment [6], 21 mm; in [9] it was 11 mm; in experiment [12] it was 18 mm; in experiment [15], 17 mm; in experiment [18], 10 mm. Also, the “diameter of the inhibition zone (DIZ)” value in experiment [7] and in experiment [16] was “inactive” each time.

For `O=C(NS(=O)(=O)C1C(c2ccccc2)=NN(c2ccccc2)C1c1ccc([N+](=O)[O-])cc1)c1ccc(Cl)s1` (centres undefined), the “diameter of the inhibition zone (DIZ)” value in [1], in experiment [2], in [7], in experiment [8], in experiment [9] and in [16] was “inactive” each time. The zone of inhibition at 100 µg/disc is 10 mm in [3]; 19 mm in [6]; 14 mm in experiment [12]; 17 mm in [15]; 14 mm in experiment [18]. The zone of inhibition at 50 µg/disc in [4] came out at 13 mm; in experiment [10] it was 12 mm; in [13] it was 10 mm. For the same molecule, the zone of inhibition at 75 µg/disc was 15 mm in experiment [5], 13 mm in [11], 14 mm in [14] and 10 mm in experiment [17].

As to `O=C(NS(=O)(=O)C1C(c2ccccc2)=NOC1c1ccccc1)c1ccc(Cl)s1` (centres undefined), the “diameter of the inhibition zone (DIZ)” value in experiment [1], in experiment [2], in experiment [7], in experiment [8], in experiment [9] and in experiment [13] was “inactive” each time. Also, the “diameter of the inhibition zone (DIZ)” value in experiment [16] and in experiment [17] was “inactive” throughout. Besides, the zone of inhibition at 100 µg/disc in experiment [3] is 8 mm; in experiment [6] it was 16 mm; in experiment [12], 12 mm; in experiment [15] it was 12 mm; in experiment [18], 7 mm. Moreover, the zone of inhibition at 50 µg/disc was 10 mm in experiment [4] and 8 mm in experiment [10]. The results for the zone of inhibition at 75 µg/disc in experiment [5], in experiment [11] and in [14] were 12 mm, 10 mm and 9 mm, respectively.

Turning to `O=C(NS(=O)(=O)C1C(c2ccccc2)=NOC1c1ccc([N+](=O)[O-])cc1)c1cccs1` (centres undefined), the zone of inhibition at 50 µg/disc is 11 mm in experiment [1], 15 mm in experiment [4] and 9 mm in experiment [10]. Moreover, the zone of inhibition at 75 µg/disc came to 12 mm in experiment [2]; 16 mm in [5]; 10 mm in [11]; 10 mm in [14]; 8 mm in experiment [17]. For the same molecule, the zone of inhibition at 100 µg/disc in experiment [3] is 15 mm; in [6] it was 20 mm; in experiment [12] it was 11 mm; in [15], 13 mm; in experiment [18], 10 mm. Further, the “diameter of the inhibition zone (DIZ)” value in experiment [7], in experiment [8], in experiment [9], in experiment [13] and in [16] was “inactive” each time.

For `Cc1ccc(-c2onc(-c3ccccc3)c2S(=O)(=O)NC(=O)c2ccc(Cl)s2)cc1`, the zone of inhibition at 50 µg/disc in experiment [1] came out at 13 mm; in experiment [4], 21 mm; in experiment [7] (read-out: DIZ), 8 mm; in [10], 17 mm; in experiment [13] it was 18 mm; in experiment [16] (read-out: DIZ) it was 14 mm. The zone of inhibition at 75 µg/disc in experiment [2] is 17 mm; in [5] it was 23 mm; in experiment [8] it was 10 mm; in experiment [11], 22 mm; in experiment [14], 21 mm; in [17], 16 mm. The zone of inhibition at 100 µg/disc in experiment [3] came out at 19 mm; in [6], 25 mm; in [9] it was 14 mm; in [12] it was 24 mm; in [15], 26 mm; in experiment [18], 18 mm.

As for `Cc1ccc(C2ON=C(c3ccccc3)C2S(=O)(=O)NC(=O)c2cccs2)cc1` (centres undefined), the “diameter of the inhibition zone (DIZ)” value in experiment [1], in experiment [2], in experiment [3], in experiment [4], in experiment [5] and in experiment [6] was “inactive” throughout. In addition, the “diameter of the inhibition zone (DIZ)” value in experiment [7], in experiment [8], in experiment [9], in [10], in experiment [11] and in experiment [12] was “inactive” in each case. Also, the “diameter of the inhibition zone (DIZ)” value in experiment [13], in experiment [14], in [15], in [16], in experiment [17] and in experiment [18] was “inactive” each time.

On to `Cc1ccc(C2ON=C(c3ccccc3)C2S(=O)(=O)NC(=O)c2ccc(Cl)s2)cc1` (centres undefined), for which the “diameter of the inhibition zone (DIZ)” value in [1], in experiment [2], in [3], in experiment [4], in [5] and in experiment [6] was “inactive” in each case. Also, the “diameter of the inhibition zone (DIZ)” value in experiment [7], in experiment [8], in [9], in [10], in [11] and in experiment [12] was “inactive” each time. Further, the “diameter of the inhibition zone (DIZ)” value in experiment [13], in experiment [14], in experiment [15], in experiment [16], in experiment [17] and in experiment [18] was “inactive” throughout.

Consider `O=C(NS(=O)(=O)C1C(c2ccccc2)=NOC1c1ccc([N+](=O)[O-])cc1)c1ccc(Cl)s1` (centres undefined), for which the zone of inhibition at 50 µg/disc in experiment [1] turned out to be 13 mm; in experiment [4] it was 16 mm; in [10] it was 9 mm; in experiment [13] it was 9 mm. For the same molecule, the zone of inhibition at 75 µg/disc in experiment [2] came out at 14 mm; in [5], 19 mm; in [11], 11 mm; in experiment [14] it was 12 mm; in [17], 9 mm. The zone of inhibition at 100 µg/disc is 16 mm in experiment [3]; 21 mm in experiment [6]; 13 mm in [12]; 15 mm in experiment [15]; 12 mm in experiment [18]. The “diameter of the inhibition zone (DIZ)” value in experiment [7], in [8], in experiment [9] and in [16] was “inactive” each time.
